Laboratory results published in patent US10064865B2, “Composition comprising phosphodiesterase type 5 inhibitor for inhibiting apoptosis of nerve cells” (ARIBIO INC., priority 2012, dated 2018).
Marks after values point to notes of the source that are not given here.

Assays:
[1] = test system: neuron apoptosis-operated rats, ipsilateral cerebral cortex; experiment: Example 1 histopathology (H&E): cerebral atrophy and degenerative neurons; type: in vivo, Sprague-Dawley (SD) rats; details: for Cerebral atrophic % / Numbers of neurons: Degenerative cells: 29 days after neuron apoptosis
Procedure: Total one hundred healthy male Sprague-Dawley (SD) rats (6-wk old upon receipt; Japan; Body weight ranged in 180-200 g upon receipt) were used after acclimatization for […]. Animals were allocated five per polycarbonate cage in a temperature (20-25° C.) and humidity (50-55%) controlled room. Light:dark cycle was 12 hr:12 hr, and standard rodent chow (Samyang, Korea) and water were supplied free to access. All animals were treated in accordance with the Guidelines for Care and Use of Laboratory Animals of Daegu Haany University based on the Guide for the Care and Use of Laboratory Animals by Institute of Laboratory Animal Resources, Commission on Life Science, National Research Council, USA on 1996, Washington D.C. Experimental groups were as follows:
The mirodenafil (mirodenafil 2HCl; SK Chemical Life Science Business, KR) was used in this experiment. […] Mirodenafil was stored at 4° C. in a refrigerator to protect from light and humidity until used. Three different dosages, 0.5, 1 and 2 mg/kg of mirodenafil were directly dissolved in saline and subcutaneously administered in a volume of 1 ml/kg on the dorsal back skins, once a day for 28 days from 24 hrs after stabilization periods from operation. In saline and neuron apoptosis control rats, equal volumes of saline as vehicle were administered, instead of mirodenafil, respectively.
The induction of neuron apoptosis was carried out by damaging the right hemisphere of the brain of animals. Specifically, animals were anesthetized with 2 or 3% isoflurane in the mixture of 70% N2O and 28.5% O2, and were maintained with 1 to 1.5% isoflurane in the mixture of 70% N2O and 28.5% O2. After that the temporalis muscle was bisected and reflected through an incision made midway between the eye and the eardrum canal. The proximal MCA was exposed through a subtemporal craniectomy by microdental drills without removing the zygomatic arch and without transecting the facial nerve. […] Mortality was less than 5%. For sham control, all procedures were performed in the same way, with the exception of the occlusion of the MCA.
At 29 days after neuron apoptosis rats were sacrificed. Brains were removed, washed in chilled phosphate buffered saline (PBS, pH7.4), and dissected into 6 coronal sections (2 mm thickness) ranging from 2 to 14 mm from the frontal brain pole on the rat brain stainless steel coronal matrix (Harvard, USA). Brain slices prepared by the stainless steel coronal matrix were directly fixed in 10% NBF, not stained with TTC. Then, embedded in paraffin, cross-sectioned, and stained with hematoxylin and eosin (H&E) for observing general histopathology of cerebral cortex. […] The histopathologist was blindes to group distribution when this analysis was made.
Histomorphometry: The atrophic % of ipsilateral cerebral cortex was calculated as following equation 1 as compared with intact contralateral hemisphere. In addition, the numbers of degenerative neurons were also measured in the restricted view fields of cerebral cortex, mm^2, respectively. Cerebral atrophy formation=(Contralateral cerebral cortex area−ipsilateral cerebral cortex area)/Contralateral cerebral cortex area×100(%) [EQUATION 1]
All data were expressed as mean±standard deviation (S.D.) of ten rats. Multiple comparison tests for different dose groups were conducted. Variance homogeneity was examined using the Levene test (Levene A, Clin Otalary, 1981; 6:145-51). […] Statistical analyses were conducted using SPSS (Release 14K, SPSS Inc., USA; Ludbrook, Clin Exp Pharmacol Physiol, 1997; 24:294-6). In addition, the percent changes between neuron apoptosis control and mirodenafil treated rats were calculated to help the understanding of the efficacy of test material as follow equation 3. Percentage changes as compared with neuron apoptosis control (%)=[((Data of mirodenafil treated groups−Data of neuron apoptosis control)/Data of neuron apoptosis control)×100] [EQUATION 3]

[2] = test system: neuron apoptosis-operated rats; experiment: Example 2 hindlimb placing test; type: in vivo, Sprague-Dawley (SD) rats
Procedure: Sensorimotor function was evaluated by use of limb placing (de Ryck M et al., Stroke. 20:1383-90(1989)) and body swing (Borlongan and Sanberg, J Neurosci. 15:5372-8(1995)) tests. These tests were performed at 1 and 28 days after neuron apoptosis. The investigator performing the surgery and behavioral assessments was blinded to treatment assignment.
Limb placing test: Forelimb and hindlimb placement were assessed independently. For the forelimb placing test, the rats were held by their torso with their forepaws hanging free and moved slowly toward the edge of a tabletop, stopping short of touching the vibrissae (for vision-induced placing), touching the vibrissae (for vibrissae-induced placing), making light contact with the front of the forepaw to the edge of the tabletop (for tactile-induced placing), and pressing the forepaws to the edge of the table with increased pressure (for proprioceptive-induced placing). Hindlimb placing was conducted in the same manner as above but with tactile and proprioceptive stimulation applied to the front/top of each hindlimb. Each limb for placing in response to visual, vibrissae, tactile, and proprioceptive stimulation are scored in the following manner: normal performance=0 points; performance with unilateral limb=1 point; performance with a delay (2 seconds) and/or incomplete=2 point; no performance=3 points. A total of 12 points in forelimb placing test and 6 points in hindlimb placing test means maximal neurological deficit, and 0 points means normal performance.
All data were expressed as mean±standard deviation (S.D.) of ten rats. Multiple comparison tests for different dose groups were conducted. Variance homogeneity was examined using the Levene test (Levene A, Clin Otalary, 1981; 6:145-51). […] In addition, the percent changes as compared with neuron apoptosis control and mirodenafil treated rats were calculated to help the understanding of the efficacy of test substances as follow Equation 6 and 7. […]

CCCOc1ccc(S(=O)(=O)N2CCN(CCO)CC2)cc1-c1nc2c(CCC)cn(CC)c2c(=O)[nH]1 [Mirodenafil, mirodenafil]
ipsilateral cerebral atrophic %, change as compared with neuron apoptosis control ([1]; 0.5 mg/kg): −8.70%
numbers of degenerative neurons, change as compared with neuron apoptosis control ([1]; 0.5 mg/kg): −44.47%
Cerebral atrophic % ([1]; 0.5 mg/kg s.c. once a day): 51.38 ± 10.74^a %
Numbers of neurons: Degenerative cells ([1]; 0.5 mg/kg s.c. once a day): 45.20 ± 8.97^ab cells/mm^2 of cerebral cortex
ipsilateral cerebral atrophic %, change as compared with neuron apoptosis control ([1]; 1 mg/kg): −46.42%
numbers of degenerative neurons, change as compared with neuron apoptosis control ([1]; 1 mg/kg): −73.46%
Cerebral atrophic % ([1]; 1 mg/kg s.c. once a day): 30.15 ± 10.28^ab %
Numbers of neurons: Degenerative cells ([1]; 1 mg/kg s.c. once a day): 21.60 ± 9.43^ab cells/mm^2 of cerebral cortex
ipsilateral cerebral atrophic %, change as compared with neuron apoptosis control ([1]; 2 mg/kg): −53.31%
numbers of degenerative neurons, change as compared with neuron apoptosis control ([1]; 2 mg/kg): −76.54%
Cerebral atrophic % ([1]; 2 mg/kg s.c. once a day): 26.28 ± 9.12^ab %
Numbers of neurons: Degenerative cells ([1]; 2 mg/kg s.c. once a day): 19.10 ± 2.08^ab cells/mm^2 of cerebral cortex
hindlimb placing test scores at 28 days, change as compared with neuron apoptosis control ([2]; 1 mg/kg from 24 hrs after surgery): −65.22%
hindlimb placing test scores at 28 days, change as compared with neuron apoptosis control ([2]; 1 mg/kg from 72 hrs after surgery): −39.13%
hindlimb placing test scores at 28 days, change as compared with neuron apoptosis control ([2]; 1 mg/kg from 168 hrs after surgery): −17.39%
